Source: ChEMBL document CHEMBL5236642, “Discovery of structural diverse reversible BTK inhibitors utilized to develop a novel in vivo CD69 and CD86 PK/PD mouse model” (Bioorg Med Chem Lett, 2023)
Converted amounts (≈) assume the structure as drawn.

Assays:
[1] = Solubility of the compound; type: physicochemical
[2] = Half-life in Sprague-Dawley rat at 1 mg/kg, iv; type: ADME, organism-based; conditions: in vivo
[3] = Apparent permeability from apical to basolateral side in human CaCo-2/TC-7 cells; type: ADME, cell-based, Caco2/TC7
[4] = Oral bioavailability in Sprague-Dawley rat at 5 mg/kg; type: ADME, organism-based; conditions: in vivo
[5] = Volume of distribution at steady state in Sprague-Dawley rat at 1 mg/kg, iv; type: ADME, organism-based; conditions: in vivo, read-out: Vdss
[6] = Tmax in Sprague-Dawley rat at 5 mg/kg, po; type: ADME, organism-based; conditions: in vivo
[7] = Oral bioavailability in rat at 2 mg/kg; type: ADME, organism-based; conditions: in vivo
[8] = Half-life in rat at 2 mg/kg, iv; type: ADME, organism-based; conditions: in vivo
[9] = Clearance in rat at 2 mg/kg, iv; type: ADME, organism-based; conditions: in vivo
[10] = Tmax in rat at 2 mg/kg, po; type: ADME, organism-based; conditions: in vivo

Row | SMILES | solubility [1] [µg/mL] | half-life [2] [h] | Papp A→B [3] [×10⁻⁶ cm/s] | bioavailability [4] [%] | Vd [5] [L/kg] | Tmax [6] [h] | bioavailability [7] [%] | half-life [8] [h] | CL [9] [mg/mL/kg] | Tmax [10] [h]
1 | O=C(CNc1cc(Cl)cc(Cl)c1)NC1CCCN(c2ncnc3[nH]ccc23)C1 (stereo not given) | 39 (≈ 93 µM) |  |  |  |  |  |  |  |  | 
2 | O=C(CNc1cc(Cl)cc(Cl)c1)N1CC[C@H]2CCN(c3ncnc4[nH]ccc34)[C@H]2C1 |  | 0.9 | 190 | 34 | 1.1 | 0.87 |  |  |  | 
3 | C[C@@H]1[C@H](Nc2ncnc3[nH]ccc23)CCCN1C(=O)CNc1cc(Cl)cc(Cl)c1 |  | 5.3 | 150 | 23 | 1.3 | 1.6 |  |  |  | 
4 | O=C(CNc1cc(Cl)cc(Cl)c1)N1CCC[C@@H](Nc2ncnc3[nH]ccc23)C1 |  |  |  |  |  |  | 98 | 13.3 | 8 | 2
